Measured values as given in patent US11230524B2, “Myocyte enhancer factor 2 (MEF2) modulators” (STANDARD LLC, priority 2017, dated 2022).
Where a name gives a salt, the structure may show the parent alone.

How the values were obtained:
Assay type in all cases: cell-based
[1] = target: MEF2D/p300 protein-protein interactions (Homo sapiens (Human), UniProt Q14814); test: Mammalian two-hybrid assay, inhibition of MEF2D and P300 protein interactions (luciferase reporter in HeLa cells); details: HeLa cells co-transfected with GAL4-MEF2D, P300-VP16 and Gal4Luc
Excerpt: Detection of MEF2D and P300 interactions. The same system that was used in Example 19 is used in here to detect MEF2D and P300 interactions. In this assay, two separate DNA constructs were made with MEF2D fused with the GAL4 DNA binding domain (GAL4-MEF2D) and P300 fused with the viral transactivator VP-16 ([…]). Human epithelial carcinoma cells (HeLa) were co-transfected with the two DNA constructs (GAL4-MEF2D and P300-VP16) and a reporter plasmid (Gal4Luc). […] MEF2D and P300 protein interactions were detected as a result of the GAL4-MEF2D and P300-VP16 protein complex binding a DNA promoter on the reporter plasmid (Gal4Luc) and driving cellular expression of a luciferase gene. The measured luciferase protein signal was proportional to the amount of MEF2D and P300 protein interactions occurring with the cell.
The relative activity and IC50 calculations. The IC50 concentrations were calculated in the same manner as described for Example 19.

[2] = target: MEF2D/HDAC4 protein-protein interactions (Homo sapiens (Human), UniProt Q14814); test: Mammalian two-hybrid assay, inhibition of MEF2D and HDAC4 protein interactions (luciferase reporter in HeLa cells); details: HeLa cells co-transfected with GAL4-MEF2D, HDAC4-VP16 and Gal4Luc; overnight treatment; luciferase normalized to Renilla
Excerpt: Detection of MEF2D and HDAC4 interactions. In this mammalian two-hybrid assay, HDAC4 and MEF2D proteins were used. […] Human epithelial carcinoma cells (HeLa) were co-transfected with the two DNA constructs (GAL4-MEF2D and HDAC4-VP16) and a reporter plasmid (Gal4Luc). […] MEF2D and HDAC4 protein interactions were detected as a result of the GAL4-MEF2D and HDAC4-VP16 protein complex binding a DNA promoter on the reporter plasmid (Gal4Luc) and driving cellular expression of a luciferase gene. The measured luciferase protein signal was proportional to the amount of MEF2D and HDAC4 protein interactions occurring with the cell.
The HDAC4 fragment lacked the catalytic domain so that the deacetylase activity was excluded from the assay.
Detection of inhibition of MEF2D and HDAC4 interactions. Next, the assay was used to test whether the compounds could disrupt the interactions between MEF2D and HDAC4. After co-expressing the GAL4-MEF2D and HDAC4-VP16 DNA constructs and reporter plasmid, the HeLa cells were treated with a test compound (10 μM) overnight. Cells transfected with the positive control GAL4VP16 fusion construct and reporter plasmid were also treated with the test compound (10 μM) overnight. As another control, DMSO was added (but kept below 0.2% V/V) to cells transfected with the positive GAL4VP16 fusion construct or the GAL4-MEF2D and HDAC4-VP16 DNA constructs. A luciferase assay was performed as described above according to the manufacturer's protocol (Promega). The luciferase response was normalized against the Renilla Luciferase as an internal control.
The relative activity and IC50 calculations. […] The relative activity, I, was the ratio of former to later, i.e. X/Y, expressed in percentile. […] The IC50 was the concentration of the compounds when X/Y equals 50.

[3] = tested on: neonatal rat ventricular myocytes (NRVMs); test: Inhibition of fetal calf serum induced cardiomyocyte hypertrophy in vitro; details: serum-starved NRVMs, 5% FCS, myocyte size 48 hours after treatment, concentration reducing FCS-induced hypertrophy by 50%; for IC50: Rattus norvegicus, Ventricular myocyte
Procedure: To evaluate the ability of the test compounds to inhibit cardio myocyte hypertrophy in vitro, serum-starved neonatal rat ventricular myocytes (NRVMs) were exposed to medium with 5% Fetal Calf Serum (FCS), a powerful activator of myoctye growth (hypertrophy) and treated with one of the compounds at doses ranging from 0.2-10 μM or with the vehicle (dimethyl sulfoxide (DMSO)). Control cells received fresh media without serum. The myocyte size was determined 48 hours after treatment. The results in Table 7 show the concentrations of the test compounds required to reduce the FCS-induced hypertrophy in the NRVMs by 50% (IC50 μM).

MEF2D/HDAC4 protein-protein interactions, sequence (Q14814 whole entry, species assumed, the tested form may be a part): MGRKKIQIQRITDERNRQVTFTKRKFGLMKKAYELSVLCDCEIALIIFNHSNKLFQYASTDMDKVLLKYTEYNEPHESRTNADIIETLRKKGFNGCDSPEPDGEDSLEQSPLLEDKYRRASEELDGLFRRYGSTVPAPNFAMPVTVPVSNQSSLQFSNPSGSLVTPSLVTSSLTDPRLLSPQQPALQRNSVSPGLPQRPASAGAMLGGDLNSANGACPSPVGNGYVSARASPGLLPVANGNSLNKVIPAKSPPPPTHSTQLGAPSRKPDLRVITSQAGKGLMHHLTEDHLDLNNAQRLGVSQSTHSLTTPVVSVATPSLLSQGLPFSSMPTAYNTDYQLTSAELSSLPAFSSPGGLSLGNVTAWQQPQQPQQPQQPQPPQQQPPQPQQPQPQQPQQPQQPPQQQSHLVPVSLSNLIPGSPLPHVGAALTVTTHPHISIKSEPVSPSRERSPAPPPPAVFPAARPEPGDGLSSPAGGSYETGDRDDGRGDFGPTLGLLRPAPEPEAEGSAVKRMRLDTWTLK
MEF2D/p300 protein-protein interactions, sequence (Q14814 whole entry, species assumed, the tested form may be a part): as above

Row | SMILES | IC50 [1] [nM] | IC50 [2] [nM] | IC50 [3] [µM] | IC50, inhibition of cardiomyocyte hypertrophy in vitro [3]
1 | CCOC(=O)NC(CCCCC(=O)Nc1ccccc1N)C(=O)Nc1cccc(OC2CC2)c1 (stereo not drawn) [ST83, ethyl (7-((2-aminophenyl)amino)-1-((3-cyclopropoxyphenyl)amino)-1,7-dioxoheptan-2-yl)carbamate] | 440 | 840 | 3.85 | –
2 | Nc1ccccc1NC(=O)/C=C/c1cccc(CNc2ccc3ncccc3c2)c1 [ST55, (E)-N-(2-aminophenyl)-3-(3-((quinolin-6-ylamino)methyl)phenyl)acrylamide] | 510 | 4530 | 9.26 | –
3 | CCOC(=O)N[C@@H](CCCCC(=O)Nc1ccccc1N)C(=O)Nc1cccc(Br)c1 [ST104, (S)-ethyl (7-((2-aminophenyl)amino)-1-((3-bromophenyl)amino)-1,7-dioxoheptan-2-yl)carbamate] | 380 | 470 | 2.89 | –
4 | COC(=O)NC(CCCCC(=O)Nc1ccccc1N)C(=O)Nc1cccc(SC)c1 (stereo not drawn) [ST85, methyl (7-((2-aminophenyl)amino)-1-((3-(methylthio)phenyl)amino)-1,7-dioxoheptan-2-yl)carbamate] | < 150 | 470 | – | –
5 | COC(=O)NC(CCCCC(=O)Nc1ccccc1N)C(=O)Nc1cccc2cccnc12 (stereo not drawn) [ST119, methyl (7-((2-aminophenyl)amino)-1,7-dioxo-1-(quinolin-8-ylamino)heptan-2-yl)carbamate] | 140 | 390 | 0.079 | –
6 | COC(=O)NC(CCCCC(=O)Nc1ccccc1N)C(=O)Nc1cccc(OCC(F)(F)F)c1 (stereo not drawn) [ST102, methyl (7-((2-aminophenyl)amino)-1,7-dioxo-1-((3-(2,2,2-trifluoroethoxy)phenyl)amino)heptan-2-yl)carbamate hydrochloride] | 1200 | 940 | 0.71 | –
7 | CCC(=O)NC(CCCCC(=O)Nc1ccccc1N)C(=O)Nc1cccc(Br)c1 (stereo not drawn) [ST89] | 71 | 770 | – | –
8 | Nc1ccccc1NC(=O)CCCCC(NC(=O)c1cccnc1)C(=O)Nc1cccc(Br)c1 (stereo not drawn) [ST93, N^7-(2-aminophenyl)-N^1-(3-bromophenyl)-2-(nicotinamido)heptanediamide] | 1080 | 610 | 5500 | –
9 | Cc1csc(NCc2cccc(/C=C/C(=O)Nc3ccccc3N)c2)n1 [ST66, (E)-N-(2-aminophenyl)-3-(3-((4-methylthiazol-2-ylamino)methyl)phenyl)acrylamide] | 1690 | 2480 | 1420 | –
10 | Nc1ccccc1NC(=O)CCCCC(NC(=O)c1ccccc1)C(=O)Nc1cccc(Br)c1 (stereo not drawn) [ST92, N^7-(2-aminophenyl)-2-benzamido-N^1-(3-bromophenyl)heptanediamide] | 470 | 810 | – | –
11 | COC(=O)NC(CCCCC(=O)Nc1ccccc1N)C(=O)Nc1nc(-c2ccncc2)cs1 (stereo not drawn) [ST116, methyl (7-((2-aminophenyl)amino)-1,7-dioxo-1-((4-(pyridin-4-yl)thiazol-2-yl)amino)heptan-2-yl)carbamate] | 270 | 570 | 4400 | –
12 | O=C(CCCCC(NC(=O)c1cccnc1)C(=O)Nc1cccc(Br)c1)NO (stereo not drawn) [ST109] | – | 680 | – | –
13 | CCOC(=O)N[C@@H](CCCCC(=O)Nc1ccccc1N)C(=O)Nc1cccc(OCC)c1 [ST100, (S)-ethyl (7-((2-aminophenyl)amino)-1-((3-ethoxyphenyl)amino)-1,7-dioxoheptan-2-yl)carbamate] | – | 210 | – | –
14 | CCOC(=O)NC(CCCCC(=O)Nc1ccccc1N)C(=O)Nc1ccncc1 (stereo not drawn) [ST125] | – | 2440 | – | –
15 | CCOC(=O)N[C@H](CCCCC(=O)NO)C(=O)Nc1cccc(Br)c1 [ST112] | – | 610 | – | –
16 | COc1cccc(NCc2ccc(F)c(/C=C/C(=O)Nc3ccccc3N)c2)c1 [ST12] | – | 3360 | – | –
17 | CC(C)OC(=O)N[C@@H](CCCCC(=O)Nc1ccccc1N)C(=O)Nc1cccc(Br)c1 [ST97] | – | 450 | – | –
18 | CCOC(=O)NC(CCCCC(=O)NCc1cncc(OCC)c1)C(=O)NCc1cncc(OCC)c1 (stereo not drawn) [ST129] | 20000 | 20000 | – | no inhibition
19 | Nc1ccccc1NC(=O)/C=C/c1cccc(CNc2ccc3ccccc3c2)c1 [ST54, (E)-N-(2-aminophenyl)-3-(3-((naphthalen-2-ylamino)methyl)phenyl) Acrylamide] | – | – | 1.16 | –
20 | Nc1ccccc1NC(=O)/C=C/c1cccc(CNc2nc(C(F)(F)F)co2)c1 [ST63, (E)-N-(2-aminophenyl)-3-(3-((4-(trifluoromethyl)oxazol-2-ylamino)methyl)phenyl)acrylamide] | 2730 | 1850 | 4.2 | –
21 | CCOC(=O)NC(CCCCC(=O)Nc1ccccc1N)C(=O)Nc1cncc(OCC)c1 (stereo not drawn) [ST127] | – | 1840 | – | –
22 | COC(=O)N[C@H](CCCCC(=O)Nc1ccccc1N)C(=O)Nc1cccc(Br)c1 [ST96] | – | 1370 | – | –
23 | COc1ccc(-c2csc(NCc3cccc(/C=C/C(=O)Nc4ccccc4N)c3)n2)cc1 [ST51] | – | > 20000 | – | –
24 | CCOC(=O)NC(CCCCC(=O)Nc1ccccc1N)C(=O)Nc1nc(-c2ccncc2)cs1 (stereo not drawn) [ST115] | – | 540 | – | –
25 | Cc1[nH]c2ccccc2c1CCNCc1cccc(/C=C/C(=O)Nc2ccccc2N)c1 [ST49, (E)-N-(2-aminophenyl)-3-(3-(((2-(2-methyl-1H-indol-3-yl)ethyl)amino)methyl)phenyl)acrylamide] | – | – | 1.23 | –

Further lines, with some results ahead:

Row | IC50 [1] [nM] | IC50 [2] [nM] | SMILES | IC50 [3] [µM] | IC50, inhibition of cardiomyocyte hypertrophy in vitro [3]
26 | 790 | 1520 | Nc1ccccc1NC(=O)/C=C/c1cccc(CNCc2cccc(OC3CC3)c2)c1 [ST13] | 0.12 | –
27 | 1600 | 1600 | Nc1ccccc1NC(=O)/C=C/c1cccc(CNc2cccc(OC3CC3)c2)c1 [ST7, (E)-N-(2-aminophenyl)-3-(3-(((3-cyclopropoxyphenyl)amino)methyl)phenyl)acrylamide] | 0.46 | –
28 | 380 | 9400 | Nc1ccccc1NC(=O)/C=C/c1cccc(CNc2ccccc2)c1 [ST1, (E)-N-(2-aminophenyl)-3-(3-((phenylamino)methyl)phenyl)acrylamide] | 0.81 | –
29 | 1100 | 1070 | CCOc1cccc(NCc2cccc(/C=C/C(=O)Nc3ccccc3N)c2)c1 [ST4, (E)-N-(2-aminophenyl)-3-(3-(((3-ethoxyphenyl)amino)methyl)phenyl)acrylamide] | 4.37 | –
30 | – | 4720 | CCOc1cccc(NCC2C=C(/C=C/C(=O)NO)CCC2)c1 (stereo not drawn) [ST35] | – | –
31 | – | 1030 | O=C(/C=C/c1cccc(CNc2cccc(F)c2)c1)NO [ST18] | – | –
32 | – | 1180 | O=C(/C=C/c1cccc(CNc2cccc(OC3CCCC3)c2)c1)NO [ST29] | – | –
33 | – | 320 | O=C(/C=C/c1cccc(CNc2nnc(C(F)(F)F)s2)c1)NO [ST74] | – | –
34 | – | 320 | COc1cccc(NCc2cccc(/C=C/C(=O)NO)c2)c1 [ST19] | – | –
35 | – | 380 | O=C(/C=C/c1cccc(CNc2cccc(OC3CC3)c2)c1)NO [ST16] | – | –
36 | – | 2400 | Nc1ccccc1NC(=O)/C=C/c1cccc(CNc2cccc(N3CCOCC3)c2)c1 [ST8] | – | –
37 | – | 670 | O=C(/C=C/c1cccc(CNc2cccc(OCC(F)(F)F)c2)c1)NO [ST46] | – | –
38 | – | 310 | O=C(/C=C/c1cccc(CNc2cccc(N3CCCCC3)c2)c1)NO [ST39] | – | –
39 | 940 | 1520 | Nc1ccccc1NC(=O)/C=C/c1cccc(CNCc2cccc(OC3CCC3)c2)c1 [ST14] | 0.15 | –
